Laboratory results: PMC3914206

Tests used:
Type in all cases: binding
Conditions in all cases: Compound Concentration 10 µM
panel of 442 kinases [1] = biological target: T1, panel of 442 kinases (Homo sapiens, UniProt O14757)
T1 construct: purchased KINOMEscan
T1 sequence (O14757 1-476): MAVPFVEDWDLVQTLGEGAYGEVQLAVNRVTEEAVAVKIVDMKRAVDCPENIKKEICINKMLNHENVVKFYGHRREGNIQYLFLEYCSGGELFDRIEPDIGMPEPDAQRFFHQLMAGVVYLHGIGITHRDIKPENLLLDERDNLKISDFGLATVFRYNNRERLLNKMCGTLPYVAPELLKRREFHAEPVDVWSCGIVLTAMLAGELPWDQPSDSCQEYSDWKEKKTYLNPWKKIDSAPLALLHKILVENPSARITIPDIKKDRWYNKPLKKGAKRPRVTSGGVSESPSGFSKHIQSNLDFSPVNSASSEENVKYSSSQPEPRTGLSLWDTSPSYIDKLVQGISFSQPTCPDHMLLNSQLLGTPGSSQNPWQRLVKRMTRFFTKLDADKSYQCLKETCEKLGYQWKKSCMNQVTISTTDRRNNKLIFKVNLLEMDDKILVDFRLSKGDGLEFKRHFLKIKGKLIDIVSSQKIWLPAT
Text: (§1) We assessed the selectivity of members of this scaffold using the KINOMEscan methodology across a near comprehensive panel of 442 kinases [[18,27]].

panel of 442 kinases [2] = biological target: T2, panel of 442 kinases (Homo sapiens, UniProt Q15418)
T2 construct: purchased KINOMEscan
T2 sequence (Q15418 whole entry): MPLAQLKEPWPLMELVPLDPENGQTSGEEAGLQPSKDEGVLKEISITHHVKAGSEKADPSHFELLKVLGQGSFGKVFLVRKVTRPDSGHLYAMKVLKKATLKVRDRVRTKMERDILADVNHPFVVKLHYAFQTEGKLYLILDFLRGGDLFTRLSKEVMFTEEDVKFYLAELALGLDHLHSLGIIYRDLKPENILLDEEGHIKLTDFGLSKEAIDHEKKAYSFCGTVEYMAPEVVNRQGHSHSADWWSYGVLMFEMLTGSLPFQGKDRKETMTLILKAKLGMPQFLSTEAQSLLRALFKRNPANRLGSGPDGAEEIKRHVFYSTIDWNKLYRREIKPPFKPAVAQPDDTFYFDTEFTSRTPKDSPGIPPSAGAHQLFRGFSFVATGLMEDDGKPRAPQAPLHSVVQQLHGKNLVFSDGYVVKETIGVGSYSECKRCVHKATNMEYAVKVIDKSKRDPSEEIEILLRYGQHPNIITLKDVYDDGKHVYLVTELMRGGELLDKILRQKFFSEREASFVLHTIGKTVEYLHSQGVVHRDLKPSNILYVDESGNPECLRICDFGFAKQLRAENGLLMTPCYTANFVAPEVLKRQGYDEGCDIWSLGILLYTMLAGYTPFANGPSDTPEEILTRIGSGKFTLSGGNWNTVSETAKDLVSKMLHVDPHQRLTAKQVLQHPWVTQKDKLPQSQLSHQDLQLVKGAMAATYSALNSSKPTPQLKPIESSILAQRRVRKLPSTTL
Text: as §1

panel of 442 kinases [3] = biological target: T3, panel of 442 kinases (Homo sapiens, UniProt P10721, D816H)
T3 construct: purchased KINOMEscan
T3 sequence (P10721 26-976 D816H): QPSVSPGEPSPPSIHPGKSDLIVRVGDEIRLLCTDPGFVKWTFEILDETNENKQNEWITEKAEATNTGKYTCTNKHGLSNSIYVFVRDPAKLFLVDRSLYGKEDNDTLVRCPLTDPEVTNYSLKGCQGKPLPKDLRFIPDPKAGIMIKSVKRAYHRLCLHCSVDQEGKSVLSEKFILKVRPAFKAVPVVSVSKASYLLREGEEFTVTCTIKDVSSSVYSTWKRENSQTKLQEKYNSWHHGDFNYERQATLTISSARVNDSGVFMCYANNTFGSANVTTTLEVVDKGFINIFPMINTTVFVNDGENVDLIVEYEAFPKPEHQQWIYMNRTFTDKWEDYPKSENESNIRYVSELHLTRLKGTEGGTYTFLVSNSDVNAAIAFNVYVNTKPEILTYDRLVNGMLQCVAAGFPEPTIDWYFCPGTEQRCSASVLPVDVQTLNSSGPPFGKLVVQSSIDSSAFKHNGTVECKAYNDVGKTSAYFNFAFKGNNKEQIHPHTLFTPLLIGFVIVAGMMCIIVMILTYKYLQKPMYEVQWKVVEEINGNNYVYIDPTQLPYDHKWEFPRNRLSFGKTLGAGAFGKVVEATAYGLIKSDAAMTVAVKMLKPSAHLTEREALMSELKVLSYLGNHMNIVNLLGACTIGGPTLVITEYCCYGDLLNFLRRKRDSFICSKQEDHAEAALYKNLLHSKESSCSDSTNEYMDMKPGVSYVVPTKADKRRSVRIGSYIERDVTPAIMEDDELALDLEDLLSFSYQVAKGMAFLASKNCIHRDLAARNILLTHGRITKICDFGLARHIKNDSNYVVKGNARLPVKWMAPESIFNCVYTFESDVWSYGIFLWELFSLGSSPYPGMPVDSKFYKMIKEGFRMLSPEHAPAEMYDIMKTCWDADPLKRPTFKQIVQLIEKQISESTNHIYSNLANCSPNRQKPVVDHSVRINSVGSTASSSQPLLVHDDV
Text: as §1

Compound	KINOMEscan: CHEK1 (panel of 442 kinases [1])	KINOMEscan: RSK1(Kin.Dom.1-N-terminal) (panel of 442 kinases [2])	KINOMEscan: RSK1(Kin.Dom.2-C-terminal) (panel of 442 kinases [2])	KINOMEscan: KIT(D816H) (panel of 442 kinases [3])
CCOc1cc(C(=O)N2CCC(N3CCN(C)CC3)CC2)ccc1Nc1ncc2c(n1)N(C1CCCC1)c1ccccc1C(=O)N2C [Compound 26]	100	100	88	100
COc1cc(C(=O)N2CCC(N3CCN(C)CC3)CC2)ccc1Nc1ncc2c(n1)N(C1CCCC1)c1ccccc1C(=O)N2C [Compound 25, 11-cyclopentyl-2-((2-methoxy-4-(4-(4-methylpiperazin-1-yl)piperidine-1-carbonyl)phenyl)amino)-5-methyl-5H-benzo[e]pyrimido[5,4-b][1,4]diazepin-6(11H)-one]	100	75	63	100
COc1cc(C(=O)N2CCC(N3CCN(C)CC3)CC2)ccc1Nc1ncc2c(n1)N1CCc3cccc(c31)C(=O)N2C [Compound 24]	85	71	22	
COc1cc(C(=O)N2CCC(N3CCN(C)CC3)CC2)ccc1Nc1ncc2c(n1)N(C)c1ccccc1C(=O)N2C [15 (LRRK2-IN-1)]	100	73	10	100
